Results on 4 molecules are retold here after patent US20170267560A1, “TABLETS FOR TREATING AND DISINFECTING WATER” (ERCROS, S.A., priority 2014, published 2017).

This data set in a line: Thermogravimetric analysis of the quantity of additive encapsulated in microporous or mesoporous material. As to conditions: for % Encapsulated (g additive/g solid total) × 100: encapsulated in silica by impregnation (Example 1).
The mark [1] stands for this setting: MIL-53 MOF, two steps, 60° C., encapsulation time 1 day.
Where [2] appears, read: MIL-53 MOF, two steps, 60° C., encapsulation time 2 days.
The mark [3] stands for this setting: MIL-53 MOF, two steps, 60° C., encapsulation time 4 days.
The mark [4] stands for this setting: MIL-53 MOF, two steps, 60° C., encapsulation time 7 days.
Setting [5] is: MIL-88 A (Al) MOF, in-situ encapsulation in one single step (Example 4).
[6] abbreviates: MIL-88 A (Al) MOF, two steps, encapsulation time 3 days.

Regarding `CC(C)=CCCC(C)CC(=O)O` (stereo not shown) [Citronellic acid, citronellic acid], the “% Encapsulated (g additive/g solid total) × 100” value stood at 56.9%. Moreover, the “% Encapsulated (g additive/g dry solid) × 100” value under setting [1] came to 19.2%. Moreover, the “% Encapsulated (g additive/g dry solid) × 100” value under setting [2] is listed as 22.5%. For the same molecule, under setting [3], the “% Encapsulated (g additive/g dry solid) × 100” value came to 25%. Under setting [4], the “% Encapsulated (g additive/g dry solid) × 100” value stood at 25.1%. Also, the “% Encapsulated (g additive/g dry solid) × 100” value under setting [5] is reported as 12.2%. In addition, under setting [6], the “% Encapsulated (g additive/g dry solid) × 100” value is on record as 8.9%.
`CC(C)=CCC/C(C)=C/C(=O)O` [Geranic acid, geranic acid]: the “% Encapsulated (g additive/g solid total) × 100” value came to 55.7%. The “% Encapsulated (g additive/g dry solid) × 100” value under setting [1] amounted to 17.2%. Moreover, the “% Encapsulated (g additive/g dry solid) × 100” value under setting [2] was found to be 33.4%. Moreover, under setting [3], the “% Encapsulated (g additive/g dry solid) × 100” value worked out at 35.3%. Further, the “% Encapsulated (g additive/g dry solid) × 100” value under setting [4] was determined as 44.0%. Besides, the “% Encapsulated (g additive/g dry solid) × 100” value under setting [5] is 13.4%. Further, under setting [6], the “% Encapsulated (g additive/g dry solid) × 100” value came to 10.6%.
Take `CC(C)=CCC/C(C)=C/CO` [Geraniol, geraniol]: the “% Encapsulated (g additive/g solid total) × 100” value came out at 55.0%. Moreover, the “% Encapsulated (g additive/g dry solid) × 100” value under setting [1] is reported as 22.1%. Moreover, the “% Encapsulated (g additive/g dry solid) × 100” value under setting [2] is given as 32.0%. The “% Encapsulated (g additive/g dry solid) × 100” value under setting [3] was found to be 29.1%. Further, under setting [4], the “% Encapsulated (g additive/g dry solid) × 100” value was 36.7%. For the same molecule, the “% Encapsulated (g additive/g dry solid) × 100” value under setting [5] worked out at 10.9%. Also, the “% Encapsulated (g additive/g dry solid) × 100” value under setting [6] is listed as 11.3%.
As for `CCCCN(CCC(=O)OCC)C(C)=O` [IR3535, ethyl 3-[acetyl(butyl)amino]propanoate], the “% Encapsulated (g additive/g solid total) × 100” value stood at 58.7%. For the same molecule, under setting [1], the “% Encapsulated (g additive/g dry solid) × 100” value worked out at 26.0%. In addition, the “% Encapsulated (g additive/g dry solid) × 100” value under setting [2] worked out at 22.1%. Further, the “% Encapsulated (g additive/g dry solid) × 100” value under setting [3] was 26.1%. Besides, the “% Encapsulated (g additive/g dry solid) × 100” value under setting [4] worked out at 25.2%. The “% Encapsulated (g additive/g dry solid) × 100” value under setting [5] is reported as 21.7%. Further, under setting [6], the “% Encapsulated (g additive/g dry solid) × 100” value is reported as 21.0%.
